Assay [1] concerns Escherichia coli ATCC 25922. The assay is described as follows: Minimum inhibitory concentration (MIC), broth microdilution. It is filed as cell-based. As for the experimental part: Materials and Methods. The assay was conducted to determine the minimum inhibitory concentration (MIC) of peroxy-acids against Escherichia coli ATCC 25922. E. coli was purchased from American Type Culture Collection (ATCC). The strain was stored at −80° C. in glycerol. Prior to usage, E. coli was revived by streaking a loopful of culture onto TSAYE (i.e., tryptone soya agar yeast extract (CM0131 and LP0021; Oxoid) prepared as per recommended by Oxoid) with overnight incubation at 37° C. An overnight culture of E. coli was diluted in TSBYE (i.e, tryptone soya broth yeast extract (CM0129; Oxoid) prepared as per recommended by Oxoid) to obtain a cell suspension of ca. 10^5 CFU/mL. Subsequently, 100 μL of the diluted culture was added to 100 μL of the test solutions at the needed concentrations into a microtiter plate (92096; TPP Techno Plastic Products AG). Peroxy-acids were tested at an active concentration of 25-1600 μg/mL. Subsequently, the inoculated plate was incubated at 37° C. up to 48 hours with the bacterial cell density recorded at optical density (OD) 600 nm at 24 hours interval using a microplate reader (Varioskan LUX; Thermo Fisher).
On the technique in general: Dilution methods test growth across graded concentrations, often in twofold steps.

Assay [2] concerns extracted Salmonella DNA. The assay is described as follows: DNA interaction Assay 1: treatment added to extracted DNA directly. The format is biochemical. Conditions: 1 kg/T; one hour at room temperature; n = 3. The method, then: (§1) Method (Assay 1: Treatment added to extracted DNA directly). One mL of cell suspension (ca. 10^8 cfu/mL in TSBYE) was harvested by centrifugation at 5000 rcf for 10 minutes. The supernatant was discarded and resuspended as detailed in the protocol provided by the supplier. DNA was extracted using the QIAamp DNA Mini kit (Cat #51304, Qiagen). The samples were incubated at 56° C. for two hours and eluted with 200 uL of nuclease-free water. The same eluent was run through the column twice to increase the DNA concentration. Extracted DNA was quantified using Quant-iT dsDNA high-sensitivity assay kit (Q33120; Thermo Fischer Scientific). Extracted DNA was subsequently treated with the different treatment groups with a final concentration of 1 kg/T (prepared in 10 mM PBS). 1.5 uL of treatment solution (prepared at 10 times higher concentration) is added to 13.5 uL of extracted DNA. The solution was mixed well and left to stand at room temperature for one hour. After one hour, the solution was diluted with nuclease-free water 10 times. DNA was subsequently quantified using Quant-iT dsDNA high-sensitivity assay kit (Q33120; Thermo Fischer Scientific). Method (Assay 2: Treatment added to cells followed by extraction). […] Extracted DNA was quantified using Quant-iT dsDNA high-sensitivity assay kit (Q33120; Thermo Fischer Scientific). […]

For assay [3], the system named is Salmonella enteriditis ATCC 13076. The assay is described as follows: DNA interaction Assay 2: treatment added to cells followed by extraction. Conditions: 1 kg/T; two hours at 37° C.; n = 3. The format is cell-based. The method, then: as §1

Structures are written as SMILES. In brackets after ≈: the same amount, converted by molar mass. Marks after values point to notes of the source that are not given here.

Consider `CCC(=O)OO` [Perpropionic acid, perpropionic acid], for which the “Minimum inhibitory concentration (μg/mL) against E. coli” value in assay [1] (no increment in OD over 48 hours, 37° C.) turned out to be 500 µg/mL (≈ 5.55 mM). The MIC in assay [1] (preliminary results) is on record as 500 ppm. In addition, the “DNA concentration, Average ± SD, Assay 1” value in assay [2] is on record as 42.8 ± 2.9^b ng/uL. For the same molecule, the “DNA concentration, Average ± SD, Assay 2” value in assay [3] was 34.97 ± 4.54^a ng/uL.

The record behind these values is US20250008983A1, “COMPOSITIONS CONTAINING PEROXYACIDS TO CONTROL PATHOGEN GROWTH IN ANIMAL FEED AND RELATED METHODS” (KEMIN INDUSTRIES, INC., priority 2023, published 2025).
